Patent US20250223559A1, “AXIOLOID: A STEM CELL-BASED MODEL OF HUMAN AXIAL DEVELOPMENT” (KYOTO UNIVERSITY, priority 2022, published 2025)

System: human Axioloids
Experiment: scRNA-seq analysis of Axioloids (clusters, marker genes, differentially expressed genes)
Assay type: cell-based
Protocol: Axioloids were collected into wells of a 96-well plate and washed three times by transferring to another well filled with 0.1% BSA (SIGMA) in HBSS(-). Axioloids of the desired stage and number were then transferred to another well filled with 100 μl of enzyme P solution of the Neural Tissue Dissociation Kit (P) (Miltenyi Biotec) and incubated at 37° C. for 10 minutes. After adding 100 μl of 0.1% BSA in HBSS(-) Axioloids were dissociated by pipetting with an uncut P200 tip 20 times. The dissociated cells were filtered through Flowmi Cell Strainers with […] porosity (Merck) into a BSA-coated 2 ml tube (Eppendorf). Cells were washed twice in 1% BSA in HBSS(-) with centrifugation steps at 400×g for 6 minutes at room temperature. Cells were then resuspended in 1% BSA in HBSS(-) using a BSA-coated uncut-P200 tip and the concentration of the cell suspension was determined with hemocytometer. The cell suspension was subjected to library preparation using Chromium Next GEM Single Cell 3' Kit v3.1 (10× Genomics), aiming for a target cell recovery of 5000-10000. Library preparation was preformed following the instructions provided by the manufacturer 10X Genomics (CG000315 Rev B). The libraries were sequenced with NovaSeq 6000 Sequencing System (Illumina) using NovaSeq 6000 SP Reagent Kit v1.5 (100 Cycles) (Illumina, #20028401) and NovaSeq 6000 S1 Reagent Kit v1.5 (100 Cycles) (Illumina, #20028319) with the paired-end mode as described in the instructions by 10X Genomics (CG000315 Rev B). scRNA-seq data were first mapped to the human reference genome (hg38) to make matrices of UMI count for each gene and each cell using Cell Ranger (10X Genomics, version 6.0.1). Putative doublet clusters were removed using Scrublet (version 0.2.3) with the expected_doublet_rate set as 0.06^64. Then, the count data were imported into the Suerat package (version 4.0.3)^65 for the downstream analysis. […] The cell cycle scores and cell cycle phases were then determined as described before^66. […]

What does the source list for CC1=C(/C=C/C(C)=C/C=C/C(C)=C/C=O)C(C)(C)CCC1 [RAL, all trans-Retinal]?
segregation of SM and TB clusters (MG with vs without RA or RAL, 96 h and 120 h): clear segregation of the SM and TB clusters; expression of TCF15, MEOX1, PAX3, PBX1, ZIC3, NR2F1, MEIS2 (MG-embedded, exposed to RAL/RA): up-regulated; MG-associated DEGs in SM (EMT genes, SFRP1, DKK1, FST, ID2, TFC15, PAX3) (addition of RA or RAL to MG): attenuated
